In patent publication US10611740B2, “Aryl dihydro-2H-benzo[b][1,4]oxazine sulfonamide and related compounds for use as agonists of RORγ and the treatment of disease” (Lycera Corporation, priority 2015, dated 2020):
pEC50: −log10 of the molar value.

Experiments:
Gal4-RORγ-LBD = biological target: T1, Gal4-RORγ-LBD (Homo sapiens, UniProt P51449); test: Gal4-RORγ Luciferase Reporter Assay in HEK-293T Cells; format: cell-based; conditions: HEK-293 cells
T1 construct: expressed in transfected cells; host or cells: HEK-293 cells (pcDNA3.1neo plasmid)
T1 sequence (P51449 269-508 limits assumed): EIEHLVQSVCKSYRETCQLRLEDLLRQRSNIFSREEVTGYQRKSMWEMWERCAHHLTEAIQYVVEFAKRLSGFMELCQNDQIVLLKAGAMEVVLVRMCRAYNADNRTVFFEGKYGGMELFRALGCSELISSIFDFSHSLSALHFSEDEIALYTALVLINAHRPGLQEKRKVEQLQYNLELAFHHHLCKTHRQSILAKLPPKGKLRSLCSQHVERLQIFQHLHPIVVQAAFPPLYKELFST
Summary of the method: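 In transfected HEK-293 cells (Gal4-RORγ-LBD, Gal4-luciferase), test agents with 2 μM ursolic acid were incubated overnight at 37 °C before luminescent detection. Values are relative to the ursolic-acid-free, compound-free signal (100).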

RORγ-LBD = biological target: T2, RORγ-LBD (Homo sapiens, UniProt P51449); test: RORγ-Ligand Binding Domain (LBD) TR-FRET Assay; format: biochemical;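 as to TR-FRET Assay Max Response: 665/615 nm ratio relative to signal without ursolic acid or compound set at 100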
T2 construct: made in house; host or cells: SF9 cells (baculovirus)
T2 sequence (P51449 269-508 limits assumed): T1 sequence (P51449 269-508 limits assumed)
Summary of the method: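 Lysate from SF9 cells expressing His-RORγ-LBD is diluted to about 3 nM final in 50 mM Tris pH 7.0 assay buffer. A biotin-tagged SRC1 LXXLL peptide goes in at 200 nM final, plus ursolic acid at 2 μM final. Test compounds carry 1% DMSO final; signal read by TR-FRET.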

[1] = luciferase reporter, with 2 μM ursolic acid

SMILES	Gal4-RORγ Assay Max Response (Gal4-RORγ-LBD; [1])	pEC50 (RORγ-LBD)	TR-FRET Assay Max Response (RORγ-LBD)	pEC50 (Gal4-RORγ-LBD; 2 μM ursolic acid)	Gal4-RORγ Assay Max Response (Gal4-RORγ-LBD; 2 μM ursolic acid)	pEC50 (Gal4-RORγ-LBD; [1])
O=C(O)CC[C@H]1CN(S(=O)(=O)c2cccc(C(F)(F)F)c2)c2cc(-c3cc(F)ccc3Cl)ccc2O1 [Compound 2AI, (S)-3-(6-(2-chloro-5-fluoro-phenyl)-4-((3-(trifluoromethyl)-phenyl)sulfonyl)-3,4-dihydro-2H-benzo[b][1,4]oxazin-2-yl)propanoic acid]	** (The symbol “**” indicates a value in the range of greater than 90 to 150)	> 6.30	**** (The symbol “****” indicates a value greater than 200)	–	–	–
O=C(O)CC[C@H]1CN(S(=O)(=O)c2cccc(C(F)(F)F)c2)c2cc(-c3cccc(Cl)c3F)cc(F)c2O1 [Compound 22I, (S)-3-(6-(3-chloro-2-fluoro-phenyl)-8-fluoro-4-((3-(trifluoromethyl)phenyl)sulfonyl)-3,4-dihydro-2H-benzo[b][1,4]-oxazin-2-yl)propanoic acid]	–	> 6.30	*** (The symbol “***” indicates a value in the range of greater than 150 to 200)	> 6.30	** (The symbol “**” indicates a value in the range of greater than 90 to 150)	–
O=C(CC[C@H]1CN(S(=O)(=O)c2cccc(C(F)(F)F)c2)c2cc(-c3cc(F)ccc3F)ccc2O1)NC[C@H](O)C(=O)O [Compound 23S, (S)-3-(3-((S)-6-(2,5-difluoro-phenyl)-4-((3-(trifluoromethyl)-phenyl)sulfonyl)-3,4-dihydro-2H-benzo[b][1,4]oxazin-2-yl)propanamido)-2-hydroxypropanoic acid]	** (The symbol “**” indicates a value in the range of greater than 90 to 150)	> 6.30	**** (The symbol “****” indicates a value greater than 200)	–	–	5.30 to 6.30
O=C(O)C1(C[C@H]2CN(S(=O)(=O)c3cccc(C(F)(F)F)c3)c3cc(-c4cccc(Cl)c4)ccc3O2)CCOCC1 [Compound 78A, (S)-4-((6-(3-chlorophenyl)-4-((3-(trifluoromethyl)phenyl)sulfonyl)-3,4-dihydro-2H-benzo[b][1,4]-oxazin-2-yl)methyl)tetrahydro-2H-pyran-4-carboxylic acid]	–	> 6.30	** (The symbol “**” indicates a value in the range of greater than 90 to 150)	> 6.30	** (The symbol “**” indicates a value in the range of greater than 90 to 150)	–
COc1ccccc1-c1ccc2c(c1)N(S(=O)(=O)c1cccc(C(F)(F)F)c1)C[C@H](CCC(=O)O)O2 [Compound 2T, (S)-3-(6-(2-methoxyphenyl)-4-((3-(trifluoromethyl)phenyl)-sulfonyl)-3,4-dihydro-2H-benzo[b][1,4]oxazin-2-yl)propanoic acid]	*** (The symbol “***” indicates a value in the range of greater than 150 to 200)	> 6.30	**** (The symbol “****” indicates a value greater than 200)	–	–	> 6.30
O=C(O)C1CCN(C(=O)CC[C@H]2CN(S(=O)(=O)c3cccc(C(F)(F)F)c3)c3cc(-c4cccc(Cl)c4)cc(F)c3O2)CC1 [Compound 9, (S)-1-(3-(6-(3-chlorophenyl)-8-fluoro-4-((3-(trifluoromethyl)phenyl)sulfonyl)-3,4-dihydro-2H-benzo[b][1,4]oxazin-2-yl)propanoyl)piperidine-4-carboxylic acid]	** (The symbol “**” indicates a value in the range of greater than 90 to 150)	> 6.30	**** (The symbol “****” indicates a value greater than 200)	–	–	> 6.30
O=C(O)C1(C[C@H]2CN(S(=O)(=O)c3cccc(C(F)(F)F)c3)c3cc(-c4cc(F)cc(F)c4Cl)ccc3O2)CCOCC1 [Compound 78C, (S)-4-((6-(2-chloro-3,5-difluoro-phenyl)-4-((3-(trifluoromethyl)-phenyl)sulfonyl)-3,4-dihydro-2H-benzo[b][1,4]oxazin-2-yl)methyl)tetrahydro-2H-pyran-4-carboxylic acid]	–	> 6.30	** (The symbol “**” indicates a value in the range of greater than 90 to 150)	> 6.30	*** (The symbol “***” indicates a value in the range of greater than 150 to 200)	–
COc1cc(-c2ccc3c(c2)N(S(=O)(=O)c2cccc(C(F)(F)F)c2)C[C@H](CCC(=O)O)O3)nc(N(C)C)c1 [Compound 4AP, (S)-3-(6-(6-(dimethylamino)-4-methoxypyridin-2-yl)-4-((3-(trifluoromethyl)phenyl)sul-fonyl)-3,4-dihydro-2H-benzo[b][1,4]oxazin-2-yl)propanoic acid]	** (The symbol “**” indicates a value in the range of greater than 90 to 150)	> 6.30	**** (The symbol “****” indicates a value greater than 200)	–	–	> 6.30
NS(=O)(=O)CCC(=O)NC[C@H]1CN(S(=O)(=O)c2cccc(C(F)(F)F)c2)c2cc(-c3cc(F)cc(OC(F)F)c3)ccc2O1 [Compound 30DA, (S)-N-((6-(3-(difluoromethoxy)-5-fluorophenyl)-4-((3-(trifluoro-methyl)phenyl)sulfonyl)-3,4-dihydro-2H-benzo[b][1,4]-oxazin-2-yl)methyl)-3-sulfamoylpropanamide]	–	> 6.30	*** (The symbol “***” indicates a value in the range of greater than 150 to 200)	5.30 to 6.30	* (The symbol “*” indicates a value in the range of 25 to 90)	–
CC(C)(O)CC(=O)NC[C@H]1CN(S(=O)(=O)c2cccc(C(F)(F)F)c2)c2cc(-c3cccc(F)c3Cl)ccc2O1 [Compound 30CG, (S)-N-((6-(2-chloro-3-fluoro-phenyl)-4-((3-(trifluoromethyl)-phenyl)sulfonyl)-3,4-dihydro-2H-benzo[b][1,4]oxazin-2-yl)methyl)-3-hydroxy-3-methylbutanamide]	–	> 6.30	*** (The symbol “***” indicates a value in the range of greater than 150 to 200)	5.30 to 6.30	* (The symbol “*” indicates a value in the range of 25 to 90)	–
CC(C)c1cccc(S(=O)(=O)N2C[C@H](CCNC(=O)C(C)(C)O)Oc3ccc(-c4cc(F)ccc4F)cc32)c1 [Compound 30D, (S)-N-(2-(6-(2,5-difluoro-phenyl)-4-((3-isopropylphenyl)-sulfonyl)-3,4-dihydro-2H-benzo[b][1,4]oxazin-2-yl)ethyl)-2-hydroxy-2-methylpropanamide]	* (The symbol “*” indicates a value in the range of 25 to 90)	> 6.30	**** (The symbol “****” indicates a value greater than 200)	–	–	> 6.30
Cn1ccc(-c2ccc3c(c2)N(S(=O)(=O)c2cccc(C(F)(F)F)c2)C[C@H](CCC(=O)O)O3)n1 [Compound 4W, (S)-3-(6-(1-methyl-1H-pyrazol-3-yl)-4-((3-(trifluoromethyl)-phenyl)sulfonyl)-3,4-dihydro-2H-benzo[b][1,4]oxazin-2-yl)propanoic acid]	** (The symbol “**” indicates a value in the range of greater than 90 to 150)	5.30 to 6.30	**** (The symbol “****” indicates a value greater than 200)	–	–	5.30 to 6.30
COc1cc(F)cc(-c2ccc3c(c2)N(S(=O)(=O)c2cccc(C(F)(F)F)c2)C[C@H](CC2(C(=O)O)COC2)O3)c1F [Compound 51C, (S)-3-((6-(2,5-difluoro-3-methoxyphenyl)-4-((3-(trifluoromethyl)phenyl)sulfonyl)-3,4-dihydro-2H-benzo[b][1,4]oxazin-2-yl)methyl)oxetane-3-carboxylic acid]	–	> 6.30	** (The symbol “**” indicates a value in the range of greater than 90 to 150)	> 6.30	** (The symbol “**” indicates a value in the range of greater than 90 to 150)	–
O=C(O)CC[C@H]1CN(S(=O)(=O)c2cccc(C(F)(F)F)c2)c2cc(-c3cc(F)ccc3F)ccc2O1 [Compound 2AD, (S)-3-(6-(2,5-difluorophenyl)-4-((3-(trifluoromethyl)-phenyl)sulfonyl)-3,4-dihydro-2H-benzo[b][1,4]oxazin-2-yl)propanoic acid]	*** (The symbol “***” indicates a value in the range of greater than 150 to 200)	> 6.30	**** (The symbol “****” indicates a value greater than 200)	–	–	> 6.30
